# Where a SMILES comes first, the peptide text is derived from it. The star is where a group is joined. Myristoyl = CCCCCCCCCCCCCC(=O)*
# Experiment: Qualitative solubility of test peptides in 0.5 N saline
# Format: physicochemical
# Conditions: pH 6.5, 20° C. (table title)
# Protocol: Various test peptides (1 to 5 mg each) were weighed out accurately in individual 2 mL screw cap glass vials and aliquots of 25 μL of 0.5 N saline, pH 6.5, were added at 25° C. and ambient pressure. The solubility was evaluated visually. If the test peptide dissolves completely with the first aliquot of saline, its solubility was calculated and designated as more than the calculated amount. […] Similarly, if 1.7 mg of a test peptide fails to dissolve in 1.7 mL of 0.5 N saline, its solubility is stated as <1.0 mg/mL.
row,Compound,solubility [mg/mL]
1,CCCCCCCCCCCCCC(=O)NCC(=O)N[C@@H](C)C(=O)N[C@@H](CCC(N)=O)C(=O)N[C@@H](Cc1ccccc1)C(=O)N[C@@H](CO)C(=O)N[C@@H](CCCCN)C(=O)N[C@H](C(=O)N[C@@H](C)C(=O)N[C@@H](C)C(=O)N[C@@H](CCCCN)C(=O)NCC(=O)N[C@@H](CCC(=O)O)C(N)=O)[C@@H](C)O [myr-peptide 79-NH2] (Myristoyl-GAQFSKTAAKGE-NH2),< 1
2,"Ac-KAATKSFQAG-OH [Ac-peptide 246, reference compound]",< 30
3,Ac-QFSKTAAKGE-NH2 [Ac-peptide 108-NH2],> 150
4,Ac-GAQFSATAAK-OH [Ac-peptide 245],> 100
5,Ac-GAQFSKTAA-OH [Ac-peptide 121],> 20
6,CC(=O)N[C@@H](C)C(=O)N[C@@H](CCCCN)C(=O)NCC(=O)N[C@@H](CCC(=O)O)C(N)=O [Ac-peptide 219-NH2] (Ac-AKGE-NH2),> 200
7,Ac-AQFSKTAAKGE-NH2 [Ac-peptide 93-NH2],> 90
8,CCCCCCCCCCCCCC(=O)N[C@@H](C)C(=O)N[C@@H](CCCCN)C(=O)NCC(=O)N[C@@H](CCC(=O)O)C(=O)O [myr-peptide 219] (Myristoyl-AKGE-OH),< 1
9,Ac-GAQFSATAAA-OH [Ac-peptide 249],< 1
10,Ac-GAQFSKTA-OH [Ac-peptide 137],> 200
11,Ac-FSKTAAKGE-NH2 [Ac-peptide 124-NH2],> 100
12,Ac-GAQFSKTAAKGE-OH [Ac-peptide 79],> 100
13,CCCCCCCCCCCCCC(=O)NCC(=O)N[C@@H](C)C(=O)N[C@@H](CCC(N)=O)C(=O)N[C@@H](C)C(=O)N[C@@H](CO)C(=O)N[C@@H](CCCCN)C(=O)N[C@H](C(=O)N[C@@H](C)C(=O)N[C@@H](C)C(=O)N[C@@H](CCCCN)C(=O)NCC(=O)N[C@@H](CCC(=O)O)C(=O)O)[C@@H](C)O [myr-peptide 237] (Myristoyl-GAQASKTAAKGE-OH),< 1
14,Ac-GAAFSKTAAK-OH [Ac-peptide 243],> 50
15,Ac-GAQFSKTAAAGE-OH [Ac-peptide 239],> 50
16,CCCCCCCCCCCCCC(=O)NCC(=O)N[C@@H](C)C(=O)N[C@@H](CCC(N)=O)C(=O)N[C@@H](Cc1ccccc1)C(=O)N[C@@H](CO)C(=O)N[C@@H](CCCCN)C(=O)N[C@H](C(=O)N[C@@H](C)C(=O)N[C@@H](C)C(=O)O)[C@@H](C)O [myr-peptide 121] (Myristoyl-GAQFSKTAA-OH),< 1
17,Ac-GAQASKTAAK-OH [Ac-peptide 236],> 80
18,Ac-TAAKGEAA-OH [Ac-peptide 143],> 230
19,Ac-GAQFSKAAAK-OH [Ac-peptide 247],> 100
20,Ac-AAKGEA-OH [Ac-peptide 179],> 150
